Measurements taken from patent EP4799701A2, “PYRIMID-2-YL-PYRAZOLE COMPOUNDS AS IRAK INHIBITORS” (Rigel Pharmaceuticals, Inc., priority 2022, dated 2023).

How the values were obtained:
Assay type in all cases: cell-based
[1] = tested on: TLR4-induced IL-23 and TNF-α; assay: TLR4 induced TNF-α in THP-1 cells; conditions: human THP-1 cells; result in words
Experimental: Assay Protocol: TLR4 and TLR2 induced cytokines in THP-1 cells. […]
THP-1 cells (100K in 100 µL/well) were primed with 25 ng/mL IFN-γ for 18 hours at 37°C, 5% CO2. […] IL-23p 19 or TNF-α protein in the supernatant were measured by sandwich ELISA. […] The plates were read with a luminometer, and the chemiluminescence values were entered into Athena (Rigel) for curve fitting, EC50 calculation, and database storage.

TLR2- induced TNF-α = assay: TLR2-induced TNF-α in human primary dendritic cells; conditions: human primary dendritic cells (DC); result in words
TLR4-induced IL-23 = assay: IL23-p19 ELISA, dendritic cells (PBMC-derived), LPS stimulated; conditions: human primary dendritic cells (DC); result in words
Experimental: Compound Screening Using DC Cells
• Human PBMC cells (All Cells, Cat No. PB002) • RPMI growth media containing 10% FBS • IFNγ (Peprotech, Cat No. 300-02) • GMCSF (Peprotech, Cat No. 300-03) and IL4 (Peprotech Cat No. 200-04) • White clear bottom 96 well plates (Fisher, Cat No. 07-200-587, Corning #3903) • LPS (Make 2.5 mg/ml Stock in PBS) from Sigma Aldrich (Cat No. L2018-5MG) • Cell Titer Glo reagent (Promega, Cat No. G7573) • Positive controls, IKK2VI inhibitor (Calbiochem, Cat No. 401483)
Human PBMC cells (400 million) obtained from the vendor were transferred into a T-175 flask containing 15 ml RPMI media (10% FBS) and incubate for 2 hours at 37 °C. […]
155 µl of the supernatant was harvested from each well carefully (without the tip touching the bottom of the well) and to the remaining 50 µl / well of the cell culture plate was added 50 µl of Cell Titer Glo reagent. The mixture was incubated for 1-2 minutes on a shaker and the plate was read for luminescence intensity to determine the compound cytotoxicity. […]
After 45 minutes, the plates were washed with TBST 4X and 100 ul / well Super Signal ELISA Pico Chemiluminescent Substrate from Pierce (3.5 ml A + 3.5 ml B + 3.5 ml MQ water) was added. The plates were shaken for 1-2 minutes then read on a plate reader. […]

SMILES: CCO[C@H]1CC[C@H](n2cc(NC(=O)c3csc(-c4cn[nH]c4)n3)c(-c3ncccn3)n2)CC1 [Compound I-1, N-(1-((1r,4r)-4-ethoxycyclohexyl)-3-(pyrimidin-2-yl)-1H-pyrazol-4-yl)-2-(1H-pyrazol-4-yl)thiazole-4-carboxamide]
- TLR4-induced TNF-α production [1]: inhibits
- TLR2- induced TNF-α production (TLR2- induced TNF-α): blocks
- TLR4-induced IL-23 production (TLR4-induced IL-23): blocks
